Experimental data as given in US10428083B2, “Heterocyclylmethyl-thienouracile as antagonists of the adenosine-A2B-receptor” (BAYER PHARMA AKTIENGESELLSCHAFT, priority 2015, dated 2019).

target: human adenosine A2b receptor (Homo sapiens (Human), UniProt P29275); experiment: Cellular in vitro reporter gene test for A2b receptor activity (CHO-K1, CRE-luciferase, NECA stimulation); type: cell-based; conditions: recombinant CHO-K1 cell line, CRE-luciferase reporter, antagonism of EC50 concentration of NECA; in some cases means of several determinations, rounded to two significant figures; read-out: A2b receptor IC50
How it was run: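 CHO-K1 cells with CRE-driven luciferase; antagonists co-incubated with NECA at its EC50, determined in a pre-experiment on each test day. Luciferase read by luminescence 3 h after NECA addition.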

Chain of human adenosine A2b receptor (P29275 whole entry): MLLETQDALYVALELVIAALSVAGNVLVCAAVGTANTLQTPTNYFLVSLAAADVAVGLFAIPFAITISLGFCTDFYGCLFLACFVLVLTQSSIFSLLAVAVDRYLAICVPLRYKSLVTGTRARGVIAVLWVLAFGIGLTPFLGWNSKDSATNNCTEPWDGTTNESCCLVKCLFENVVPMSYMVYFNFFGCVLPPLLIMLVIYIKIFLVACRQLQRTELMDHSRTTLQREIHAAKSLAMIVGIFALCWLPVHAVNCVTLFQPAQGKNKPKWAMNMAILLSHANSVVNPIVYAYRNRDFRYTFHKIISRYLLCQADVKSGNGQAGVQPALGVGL

Row | Compound | IC50 [nM]
1 | Cc1c(CN2CCNC(=O)C2=O)sc2c1c(=O)n(CC(F)(F)F)c(=O)n2CC1CCCO1 (single isomer, unassigned) [Example 489, 6-[(2,3-Dioxopiperazin-1-yl)methyl]-5-methyl-1-(tetrahydrofuran-2-ylmethyl)-3-(2,2,2-trifluoroethyl)thieno[2,3-d]pyrimidine-2,4(1H,3H)-dione] | 27
2 | COC(C)Cn1c(=O)c2c(C)c(CN3CCNC(=O)C3=O)sc2n(CCC(F)(F)F)c1=O (single isomer, unassigned) [Example 494, 6-[(2,3-Dioxopiperazin-1-yl)methyl]-3-(2-methoxypropyl)-5-methyl-1-(3,3,3-trifluoropropyl)thieno[2,3-d]pyrimidine-2,4(1H,3H)-dione] | 20
3 | COC(C)Cn1c(=O)c2c(C)c(CN3CCNC(=O)C3=O)sc2n(CCC(F)(F)F)c1=O (single isomer, unassigned) [Example 495, 6-[(2,3-Dioxopiperazin-1-yl)methyl]-3-(2-methoxypropyl)-5-methyl-1-(3,3,3-trifluoropropyl)thieno[2,3-d]pyrimidine-2,4(1H,3H)-dione] | 57
4 | COCCn1c(=O)n(C(C)C(F)(F)F)c(=O)c2c(C)c(CN3CCNC3=O)sc21 (single isomer, unassigned) [Example 498, 1-(2-Methoxyethyl)-5-methyl-6-[(2-oxoimidazolidin-1-yl)methyl]-3-(1,1,1-trifluoropropan-2-yl)thieno[2,3-d]pyrimidine-2,4(1H,3H)-dione] | 79
5 | COCCn1c(=O)n(C(C)C(F)(F)F)c(=O)c2c(C)c(CN3CCNC3=O)sc21 (single isomer, unassigned) [Example 499, 1-(2-Methoxyethyl)-5-methyl-6-[(2-oxoimidazolidin-1-yl)methyl]-3-(1,1,1-trifluoropropan-2-yl)thieno[2,3-d]pyrimidine-2,4(1H,3H)-dione] | 230
6 | CCn1c(=O)c2c(C)c(C(C)N3CCNC3=O)sc2n(CCC(F)(F)F)c1=O (single isomer, unassigned) [Example 503, 3-Ethyl-5-methyl-6-[1-(2-oxoimidazolidin-1-yl)ethyl]-1-(3,3,3-trifluoropropyl)thieno[2,3-d]pyrimidine-2,4(1H,3H)-dione] | 39
7 | CCn1c(=O)c2c(C)c(C(C)N3CCNC3=O)sc2n(CCC(F)(F)F)c1=O (single isomer, unassigned) [Example 504, 3-Ethyl-5-methyl-6-[1-(2-oxoimidazolidin-1-yl)ethyl]-1-(3,3,3-trifluoropropyl)thieno[2,3-d]pyrimidine-2,4(1H,3H)-dione] | 2000
8 | COCCn1c(=O)n(C(C)C(F)(F)F)c(=O)c2c(C)c(CN3CCNC3=NC#N)sc21 (single isomer, unassigned) [Example 510, [1-{[1-(2-Methoxyethyl)-5-methyl-2,4-dioxo-3-(1,1,1-trifluoropropan-2-yl)-1,2,3,4-tetrahydrothieno[2,3-d]pyrimidin-6-yl]methyl}imidazolidin-2-ylidene]cyanamide] | 47
9 | COCCn1c(=O)n(C(C)C(F)(F)F)c(=O)c2c(C)c(CN3CCNC3=NC#N)sc21 (single isomer, unassigned) [Example 511, [1-{[1-(2-Methoxyethyl)-5-methyl-2,4-dioxo-3-(1,1,1-trifluoropropan-2-yl)-1,2,3,4-tetrahydrothieno[2,3-d]pyrimidin-6-yl]methyl}imidazolidin-2-ylidene]cyanamide] | 110
10 | COCCn1c(=O)n(C(C)C(F)(F)F)c(=O)c2c(C)c(CN3CCNC3=NC(=O)OC)sc21 (single isomer, unassigned) [Example 514, Methyl [1-{[1-(2-methoxyethyl)-5-methyl-2,4-dioxo-3-(1,1,1-trifluoropropan-2-yl)-1,2,3,4-tetrahydrothieno[2,3-d]pyrimidin-6-yl]methyl}imidazolidin-2-ylidene]carbamate] | 32
11 | COCCn1c(=O)n(C(C)C(F)(F)F)c(=O)c2c(C)c(CN3CCNC3=NC(=O)OC)sc21 (single isomer, unassigned) [Example 515, Methyl [1-{[1-(2-methoxyethyl)-5-methyl-2,4-dioxo-3-(1,1,1-trifluoropropan-2-yl)-1,2,3,4-tetrahydrothieno[2,3-d]pyrimidin-6-yl]methyl}imidazolidin-2-ylidene]carbamate] | 24
12 | CCn1c(=O)c2c(C)c(CN3CCNC3=O)sc2n(CC2CC2(F)F)c1=O (single isomer, unassigned; enantiomer 1) [Example 55, 1-[(2,2-Difluorocyclopropyl)methyl]-3-ethyl-5-methyl-6-[(2-oxoimidazolidin-1-yl)methyl]thieno[2,3-d]pyrimidine-2,4(1H,3H)-dione (Enantiomer 1)] | 1.3
13 | CCn1c(=O)c2c(C)c(CN3CCNC3=O)sc2n(CC(C)OC)c1=O (single isomer, unassigned; enantiomer 1) [Example 63, 3-Ethyl-1-(2-methoxypropyl)-5-methyl-6-[(2-oxoimidazolidin-1-yl)methyl]thieno[2,3-d]pyrimidine-2,4(1H,3H)-dione (Enantiomer 1)] | 39
14 | CCn1c(=O)c2c(C)c(CN3CCNC3=O)sc2n(CC2CCCO2)c1=O (single isomer, unassigned; enantiomer 1) [Example 69, 3-Ethyl-5-methyl-6-[(2-oxoimidazolidin-1-yl)methyl]-1-(tetrahydrofuran-2-ylmethyl)thieno[2,3-d]pyrimidine-2,4(1H,3H)-dione (Enantiomer 1)] | 9.8
15 | CCn1c(=O)c2c(C)c(CN3CCNC3=O)sc2n(CC2CCOC2)c1=O (single isomer, unassigned; enantiomer 1) [Example 74, 3-Ethyl-5-methyl-6-[(2-oxoimidazolidin-1-yl)methyl]-1-(tetrahydrofuran-3-ylmethyl)thieno[2,3-d]pyrimidine-2,4(1H,3H)-dione (Enantiomer 1)] | 36
16 | CCn1c(=O)c2c(C)c(CN3CCNC3=O)sc2n(CC2CC2(F)F)c1=O (single isomer, unassigned; enantiomer 2) [Example 56, 1-[(2,2-Difluorocyclopropyl)methyl]-3-ethyl-5-methyl-6-[(2-oxoimidazolidin-1-yl)methyl]thieno[2,3-d]pyrimidine-2,4(1H,3H)-dione (Enantiomer 2)] | 8
17 | CCn1c(=O)c2c(C)c(CN3CCNC3=O)sc2n(CC(C)OC)c1=O (single isomer, unassigned; enantiomer 2) [Example 64, 3-Ethyl-1-(2-methoxypropyl)-5-methyl-6-[(2-oxoimidazolidin-1-yl)methyl]thieno[2,3-d]pyrimidine-2,4(1H,3H)-dione (Enantiomer 2)] | 86
18 | CCn1c(=O)c2c(C)c(CN3CCNC3=O)sc2n(CC2CCO2)c1=O (single isomer, unassigned; enantiomer 2) [Example 67, 3-Ethyl-5-methyl-1-(oxetan-2-ylmethyl)-6-[(2-oxoimidazolidin-1-yl)methyl]thieno[2,3-d]pyrimidine-2,4(1H,3H)-dione (Enantiomer 2)] | 29
19 | CCn1c(=O)c2c(C)c(CN3CCNC3=O)sc2n(CC2CCCO2)c1=O (single isomer, unassigned; enantiomer 2) [Example 70, 3-Ethyl-5-methyl-6-[(2-oxoimidazolidin-1-yl)methyl]-1-(tetrahydrofuran-2-ylmethyl)thieno[2,3-d]pyrimidine-2,4(1H,3H)-dione (Enantiomer 2)] | 21
